We go through 47 molecules from patent publication US12581252B2, “Substituted pyrrolo[3,4-b]pyridines as PI3K-α inhibitors” (Relay Therapeutics, Inc., priority 2020, dated 2026).

The structures appear in SMILES notation. Some results are limits rather than exact numbers.

What is called IC50 is the concentration needed to halve the response being measured.

In this experiment the target is H1047R PIK3CA enzyme (Homo sapiens, UniProt P42336, H1047R). The experiment can be described thus: ADP-Glo Biochemical PIK3CA Kinase Assay.
Chain of H1047R PIK3CA enzyme (P42336 whole entry H1047R): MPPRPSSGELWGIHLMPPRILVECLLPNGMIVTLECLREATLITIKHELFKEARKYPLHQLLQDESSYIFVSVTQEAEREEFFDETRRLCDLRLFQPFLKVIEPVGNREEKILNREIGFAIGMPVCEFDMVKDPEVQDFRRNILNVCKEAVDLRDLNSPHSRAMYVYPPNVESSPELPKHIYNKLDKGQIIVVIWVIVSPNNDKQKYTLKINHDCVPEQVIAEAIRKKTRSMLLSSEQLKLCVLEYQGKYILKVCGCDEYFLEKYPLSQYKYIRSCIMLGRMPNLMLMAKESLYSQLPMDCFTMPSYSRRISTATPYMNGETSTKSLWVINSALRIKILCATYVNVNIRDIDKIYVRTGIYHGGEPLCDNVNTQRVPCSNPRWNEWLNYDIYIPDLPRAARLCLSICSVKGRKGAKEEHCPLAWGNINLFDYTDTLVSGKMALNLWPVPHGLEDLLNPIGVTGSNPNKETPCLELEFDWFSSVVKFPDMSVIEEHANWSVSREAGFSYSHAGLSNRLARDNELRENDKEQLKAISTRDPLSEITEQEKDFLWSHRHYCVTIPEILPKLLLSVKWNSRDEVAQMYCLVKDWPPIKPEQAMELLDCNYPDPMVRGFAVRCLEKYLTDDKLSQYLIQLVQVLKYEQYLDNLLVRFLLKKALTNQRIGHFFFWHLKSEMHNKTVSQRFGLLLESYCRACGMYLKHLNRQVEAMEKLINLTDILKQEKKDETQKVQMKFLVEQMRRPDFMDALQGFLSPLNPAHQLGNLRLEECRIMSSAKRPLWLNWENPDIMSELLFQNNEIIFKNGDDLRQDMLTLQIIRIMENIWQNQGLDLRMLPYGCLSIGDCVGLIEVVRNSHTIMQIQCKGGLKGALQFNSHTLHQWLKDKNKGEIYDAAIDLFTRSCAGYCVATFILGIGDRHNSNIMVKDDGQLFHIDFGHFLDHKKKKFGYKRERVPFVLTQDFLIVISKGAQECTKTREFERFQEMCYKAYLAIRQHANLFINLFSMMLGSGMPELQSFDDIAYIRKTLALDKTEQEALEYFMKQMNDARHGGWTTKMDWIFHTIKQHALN
Chain of H1047R PIK3CA enzyme (P27986 whole entry partner): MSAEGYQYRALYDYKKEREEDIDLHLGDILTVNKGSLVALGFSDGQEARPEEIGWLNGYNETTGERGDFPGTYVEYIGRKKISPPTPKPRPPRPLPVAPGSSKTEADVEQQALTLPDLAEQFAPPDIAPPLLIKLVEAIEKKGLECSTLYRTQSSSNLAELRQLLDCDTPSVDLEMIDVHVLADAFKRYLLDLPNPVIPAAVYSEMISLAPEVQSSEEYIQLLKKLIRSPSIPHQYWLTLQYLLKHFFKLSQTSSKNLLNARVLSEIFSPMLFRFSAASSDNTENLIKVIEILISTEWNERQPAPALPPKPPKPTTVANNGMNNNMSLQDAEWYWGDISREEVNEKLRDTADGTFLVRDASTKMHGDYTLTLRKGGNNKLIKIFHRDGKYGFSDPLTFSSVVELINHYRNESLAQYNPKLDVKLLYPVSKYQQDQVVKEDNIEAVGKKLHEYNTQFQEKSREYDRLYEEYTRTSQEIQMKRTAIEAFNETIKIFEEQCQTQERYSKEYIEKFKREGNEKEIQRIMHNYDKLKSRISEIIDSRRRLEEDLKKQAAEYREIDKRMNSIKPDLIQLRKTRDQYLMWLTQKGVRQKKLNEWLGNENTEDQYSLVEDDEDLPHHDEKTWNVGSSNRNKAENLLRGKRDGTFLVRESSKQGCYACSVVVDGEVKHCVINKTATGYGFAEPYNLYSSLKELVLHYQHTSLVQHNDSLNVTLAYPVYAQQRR
`O=C1N[C@H](c2cc(F)ccc2Cl)c2c(NC(=O)N3C[C@@H](O)c4cc(F)ccc43)cc(-n3ccccc3=O)cc21` (single isomer, unassigned) [Compound I-2352]: the 50% inhibitory concentration (IC50) lay in the range of 1000 to 10000 nM.

`O=C1N[C@H](c2cc(F)ccc2Cl)c2c(NC(=O)N3C[C@H](O)c4cc(F)ccc43)cc(-n3ccccc3=O)cc21` (single isomer, unassigned) [Compound I-2353] had a concentration for half-maximal inhibition (IC50) of 1000 to 10000 nM.

Turning to `O=C1N[C@H](c2cc(F)ccc2Cl)c2c(NC(=O)N3CCc4cc(F)ccc43)cc(-c3cnn(C(F)F)c3)cc21` (single isomer, unassigned) [Compound I-2356], the half-maximal inhibitory concentration (IC50) lay in the range of 1000 to 10000 nM.

In turn, `O=C1N[C@H](c2cc(F)ccc2Cl)c2c(NC(=O)N3C[C@@H](O)c4cc(F)ccc43)cc(-n3cccn3)cc21` (single isomer, unassigned) [Compound I-2365] returned an IC50 of 500 to 1000 nM.

With `O=C1N[C@@H](c2cc(F)ccc2Cl)c2c(NC(=O)N3C[C@@H](O)c4cc(F)ccc43)cc(-n3cccn3)cc21` (single isomer, unassigned) [Compound I-2366], the 50% inhibitory concentration (IC50) lay within 1000 to 10000 nM.

In the case of `O=C1N[C@H](c2cc(F)ccc2Cl)c2c(NC(=O)N3C[C@H](O)c4cc(F)ccc43)cc(-n3cccn3)cc21` (single isomer, unassigned) [Compound I-2367], the half-maximal inhibitory concentration (IC50) lay within 1000 to 10000 nM.

`O=C1N[C@@H](c2cc(F)ccc2Cl)c2c(NC(=O)N3C[C@H](O)c4cc(F)ccc43)cc(-n3ccnn3)cc21` (single isomer, unassigned) [Compound I-2368] had a half-inhibitory concentration (IC50) of 1000 to 10000 nM.

`O=C1N[C@@H](c2cc(F)ccc2Cl)c2c(NC(=O)N3C[C@@H](O)c4cc(F)ccc43)cc(-n3ccnn3)cc21` (single isomer, unassigned) [Compound I-2370] registered a half-maximal inhibitory concentration (IC50) of 500 to 1000 nM.

Regarding `O=C1N[C@H](c2cc(F)ccc2Cl)c2c(NC(=O)N3C[C@@H](O)c4cc(F)ccc43)cc(-n3ccnn3)cc21` (single isomer, unassigned) [Compound I-2371], the concentration for half-maximal inhibition (IC50) fell in the range of 1000 to 10000 nM.

With `C[C@@H]([C@H]1C[C@H](O)CN1C(=O)Nc1cccc2c1[C@H](c1cc(F)ccc1Cl)NC2=O)C(F)(F)F` (single isomer, unassigned) [Compound I-2378], the IC50 was 10000 to 100000 nM.

For the molecule `C[C@H]([C@H]1C[C@H](O)CN1C(=O)Nc1cccc2c1[C@H](c1cc(F)ccc1Cl)NC2=O)C(F)(F)F` (single isomer, unassigned) [Compound I-2379], the 50% inhibitory concentration (IC50) was in the range of 10000 to 100000 nM.

The molecule `O=C1N[C@H](c2cc(F)ccc2Cl)c2c(NC(=O)N3C[C@@](O)(C(F)(F)F)c4ccccc43)cccc21` (single isomer, unassigned) [Compound I-2383] gave an IC50 of 10000 to 100000 nM.

Molecule `O=C1N[C@@H](c2cc(F)ccc2Cl)c2c(NC(=O)N3C[C@](O)(C(F)(F)F)c4ccccc43)cccc21` (single isomer, unassigned) [Compound I-2384] displayed an IC50 of 1000 to 10000 nM.

As for `O=C1N[C@H](c2cc(F)ccc2Cl)c2c(NC(=O)N3C[C@](O)(C(F)(F)F)c4ccccc43)cccc21` (single isomer, unassigned) [Compound I-2385], the half-inhibitory concentration (IC50) lay within 1000 to 10000 nM.

As to `O=C(Nc1cc(/N=C2/N[C@H](C(F)(F)F)CO2)cc2c1[C@@H](c1cc(F)ccc1Cl)NC2=O)c1cc(F)cc(C(F)(F)F)c1` (single isomer, unassigned) [Compound I-2389], the concentration for half-maximal inhibition (IC50) fell in the range of 1000 to 10000 nM.

Take `O=C(Nc1cc(/N=C2/N[C@@H](C(F)(F)F)CO2)cc2c1[C@@H](c1cc(F)ccc1Cl)NC2=O)c1cc(F)cc(C(F)(F)F)c1` (single isomer, unassigned) [Compound I-2390]: the 50% inhibitory concentration (IC50) fell in the range of 1000 to 10000 nM.

`C[C@@H]([C@@H]1C[C@H](O)CN1C(=O)Nc1cccc2c1[C@H](c1cc(F)ccc1Cl)NC2=O)C(F)(F)F` (single isomer, unassigned) [Compound I-2393] displayed a half-maximal inhibitory concentration (IC50) of 500 to 1000 nM.

Regarding `O=C1N[C@H](c2cc(F)ccc2Cl)c2c(NC(=O)N3C[C@H](O)c4cc(F)ccc43)cc(Cl)cc21` (single isomer, unassigned) [Compound I-2399], the IC50 was in the range of 1000 to 10000 nM.

`O=C1N[C@@H](c2cc(F)ccc2Cl)c2c(NC(=O)N3C[C@H](O)c4cc(F)ccc43)cc(Cl)cc21` (single isomer, unassigned) [Compound I-2400] registered an IC50 of 100 to 500 nM.

For the molecule `O=C1N[C@@H](c2cc(F)ccc2Cl)c2c(NC(=O)N3C[C@@H](O)c4cc(F)ccc43)cc(Cl)cc21` (single isomer, unassigned) [Compound I-2401], the half-inhibitory concentration (IC50) was in the range of 10000 to 100000 nM.

The molecule `N#Cc1cnn(-c2cc(NC(=O)N3C[C@@H](O)c4cc(F)ccc43)c3c(c2)C(=O)N[C@H]3c2cc(F)ccc2Cl)c1` (single isomer, unassigned) [Compound I-2405] registered a half-maximal inhibitory concentration (IC50) of at most 100 nM.

`N#Cc1cnn(-c2cc(NC(=O)N3C[C@H](O)c4cc(F)ccc43)c3c(c2)C(=O)N[C@@H]3c2cc(F)ccc2Cl)c1` (single isomer, unassigned) [Compound I-2406]: the IC50 lay within 1000 to 10000 nM.

`Nc1cc(NC(=O)N2C[C@H](O)c3cc(F)ccc32)c2c(c1)C(=O)N[C@@H]2c1cc(F)ccc1Cl` (single isomer, unassigned) [Compound I-2412] showed an IC50 of 1000 to 10000 nM.

For `Nc1cc(NC(=O)N2C[C@H](O)c3cc(F)ccc32)c2c(c1)C(=O)N[C@H]2c1cc(F)ccc1Cl` (single isomer, unassigned) [Compound I-2413], the IC50 was in the range of 10000 to 100000 nM.

`CC(C)(C)C1CCCN1C(=O)Nc1cccc2c1C(c1cc(F)ccc1Cl)NC2=O` (single isomer, unassigned) [Compound I-2432] came in with an IC50 of 500 to 1000 nM.

Turning to `CC(C)(C)C1CCCN1C(=O)Nc1cccc2c1C(c1cc(F)ccc1Cl)NC2=O` (single isomer, unassigned) [Compound I-2433], the IC50 was 1000 to 10000 nM.

Turning to `NCCc1cc(NC(=O)N2C[C@@H](O)c3cc(F)ccc32)c2c(c1)C(=O)N[C@@H]2c1cc(F)ccc1Cl` (single isomer, unassigned) [Compound I-2444], the concentration for half-maximal inhibition (IC50) is 100 to 500 nM.

In the case of `NCCc1cc(NC(=O)N2C[C@H](O)c3cc(F)ccc32)c2c(c1)C(=O)N[C@H]2c1cc(F)ccc1Cl` (single isomer, unassigned) [Compound I-2445], the 50% inhibitory concentration (IC50) was 1000 to 10000 nM.

Regarding `NCCc1cc(NC(=O)N2C[C@@H](O)c3cc(F)ccc32)c2c(c1)C(=O)N[C@H]2c1cc(F)ccc1Cl` (single isomer, unassigned) [Compound I-2446], the IC50 lay in the range of 1000 to 10000 nM.

`O=C1N[C@H](c2cc(F)ccc2Cl)c2c(NC(=O)N3C[C@@H](O)c4cc(F)ccc43)cc(-c3ccc(=O)n(C(F)F)c3)cc21` (single isomer, unassigned) [Compound I-2449] came in with a half-inhibitory concentration (IC50) of 100 to 500 nM.

As to `O=C1N[C@@H](c2cc(F)ccc2Cl)c2c(NC(=O)N3C[C@H](O)c4cc(F)ccc43)cc(-c3ccc(=O)n(C(F)F)c3)cc21` (single isomer, unassigned) [Compound I-2450], the IC50 was in the range of 1000 to 10000 nM.

`O=C1N[C@@H](c2cc(F)ccc2Cl)c2c(NC(=O)N3C[C@@H](O)c4cc(F)ccc43)cc(-c3ccc(=O)n(C(F)F)c3)cc21` (single isomer, unassigned) [Compound I-2451]: the IC50 lay within 1000 to 10000 nM.

With `CC(C)[C@@]1(O)CN(C(=O)Nc2cccc3c2[C@H](c2cc(F)ccc2Cl)NC3=O)c2ccc(F)cc21` (single isomer, unassigned) [Compound I-2452], the half-maximal inhibitory concentration (IC50) lay in the range of 1000 to 10000 nM.

On to `CC(C)[C@]1(O)CN(C(=O)Nc2cccc3c2[C@H](c2cc(F)ccc2Cl)NC3=O)c2ccc(F)cc21` (single isomer, unassigned) [Compound I-2453], for which the IC50 lay within 1000 to 10000 nM.

On to `CC(C)[C@@]1(O)CN(C(=O)Nc2cccc3c2[C@@H](c2cc(F)ccc2Cl)NC3=O)c2ccc(F)cc21` (single isomer, unassigned) [Compound I-2454], for which the half-maximal inhibitory concentration (IC50) was in the range of 100 to 500 nM.

For `CC(C)[C@]1(O)CN(C(=O)Nc2cccc3c2[C@@H](c2cc(F)ccc2Cl)NC3=O)c2ccc(F)cc21` (single isomer, unassigned) [Compound I-2455], the IC50 lay within 1000 to 10000 nM.

In turn, `CCC[C@]1(O)CN(C(=O)Nc2cccc3c2[C@@H](c2cc(F)ccc2Cl)NC3=O)c2ccc(F)cc21` (single isomer, unassigned) [Compound I-2456] came in with an IC50 of 1000 to 10000 nM.

In the case of `CCC[C@@]1(O)CN(C(=O)Nc2cccc3c2[C@@H](c2cc(F)ccc2Cl)NC3=O)c2ccc(F)cc21` (single isomer, unassigned) [Compound I-2457], the concentration for half-maximal inhibition (IC50) fell in the range of 500 to 1000 nM.

In the case of `CCC[C@]1(O)CN(C(=O)Nc2cccc3c2[C@H](c2cc(F)ccc2Cl)NC3=O)c2ccc(F)cc21` (single isomer, unassigned) [Compound I-2458], the IC50 was 1000 to 10000 nM.

In the case of `CCC[C@@]1(O)CN(C(=O)Nc2cccc3c2[C@H](c2cc(F)ccc2Cl)NC3=O)c2ccc(F)cc21` (single isomer, unassigned) [Compound I-2459], the concentration for half-maximal inhibition (IC50) lay within 1000 to 10000 nM.

`CC[C@]1(O)CN(C(=O)Nc2cccc3c2[C@@H](c2cc(F)ccc2Cl)NC3=O)c2ccc(F)cc21` (single isomer, unassigned) [Compound I-2460] had a half-maximal inhibitory concentration (IC50) of 1000 to 10000 nM.

For the molecule `CC[C@]1(O)CN(C(=O)Nc2cccc3c2[C@H](c2cc(F)ccc2Cl)NC3=O)c2ccc(F)cc21` (single isomer, unassigned) [Compound I-2462], the half-inhibitory concentration (IC50) lay within 1000 to 10000 nM.

With `CC[C@@]1(O)CN(C(=O)Nc2cccc3c2[C@H](c2cc(F)ccc2Cl)NC3=O)c2ccc(F)cc21` (single isomer, unassigned) [Compound I-2463], the half-maximal inhibitory concentration (IC50) was in the range of 1000 to 10000 nM.

As for `N[C@]1(C(F)(F)F)CN(C(=O)Nc2cccc3c2[C@H](c2cc(F)ccc2Cl)NC3=O)c2ccc(F)cc21` (single isomer, unassigned) [Compound I-2472], the 50% inhibitory concentration (IC50) was 500 to 1000 nM.

On to `O=C1N[C@H](c2cc(F)ccc2Cl)c2c(NC(=O)N3C[C@H](O)c4cc(F)ccc43)cc(-c3cnn(C(F)F)c3)cc21` (single isomer, unassigned) [Compound I-2475], for which the half-inhibitory concentration (IC50) fell in the range of 1000 to 10000 nM.

In turn, `O=C1N[C@H](c2cc(F)ccc2Cl)c2c(NC(=O)N3C[C@@H](O)c4cc(F)ccc43)cc(-c3cnn(C(F)F)c3)cc21` (single isomer, unassigned) [Compound I-2476] registered an IC50 of 10000 to 100000 nM.

In turn, `O=C1N[C@@H](c2cc(F)ccc2Cl)c2c(NC(=O)N3C[C@H](O)c4cc(F)ccc43)cc(-c3cnn(C(F)F)c3)cc21` (single isomer, unassigned) [Compound I-2478] registered a concentration for half-maximal inhibition (IC50) of 100 to 500 nM.
